Reference: article PMC8150775, “Repositioning Azelnidipine as a Dual Inhibitor Targeting CD47/SIRPα and TIGIT/PVR Pathways for Cancer Immuno-Therapy” (Biomolecules, 2021)

Experiments:
MC38 cells = assay: Phagocytosis assay, BMDM co-cultured with GFP+ MC38 cells; assay type: cell-based, mouse; settings: 20 μM, 4 h
Method: Bone marrow-derived macrophage (BMDM) cells were isolated from C57BL/6 or BALB/c mice and induced with 20 ng/mL of GM-CSF (Peprotech, Rocky Hill, CT, USA) for 7 days. Meanwhile, the medium was replaced with fresh medium containing the cytokine and the adherent cells were harvested. Phagocytosis assays were performed by a co-culture of the BMDM macrophages with carboxyfluorescein succinimidyl ester-labeled (CFSE^+) or GFP^+ tumor cells at a ratio of 1:4 in a serum-free medium at 37 °C for 4 h, in low-attachment 96-well tissue culture plates (Corning, New York, NY, USA). The cells were harvested and the macrophages were identified by a flow cytometry using anti-F4/80 antibody (eBioscience, San Diego, CA, USA). Then, 7-AAD (eBioscience) was used to exclude the dead cells. The effects of azelnidipine (20 μM) on phagocytosis by BMDM cells were tested, and the anti-CD47 antibody (clone: miap301) were used as the positive control. Phagocytosis rate was determined with the formulation: F4/80^+GFP^+ or F4/80^+CFSE^+ cells/ Total F4/80^+ cells.
Figure 4 Azelnidipine enhances macrophage mediated phagocytosis of the tumor cells. The effects of the azelnidipine on the phagocytosis of the macrophages were tested by a co-culture of the tumor cells and BMDM cell derived from C57BL/6 or BALB/c mice. […] GFP^+ or CFSE^+ BMDMs were detected by a flow cytometry. […]

CD47/SIRPα interaction = molecular target: T1, CD47/SIRPα interaction (Homo sapiens, UniProt P78324); assay: Blocking assay by flow cytometry, preliminary screening at a single concentration, CD47/SIRPα; assay type: binding; settings: preliminary test, single concentration of 100 μM
T1 construct: purchased ACRO Biosystem SIA-H5251; host or cells: CHOK1-CD47 cells (lenti-viral transfection)
Method: (§1) The abilities of small molecule inhibitors (SMIs) (purchased from TargetMol, Shanghai, China) to block the binding of SIRPα protein to CHOK1-CD47 cells or PVR protein to CHOK1-TIGIT cells were determined by flow cytometry, as previously reported. The SMIs at indicated concentrations were incubated with Fc-tagged SIRPα or PVR protein for 30 min at 4°C, followed by incubating with the indicated cells for another 30 min. Human SIRPα protein (SIA-H5251, ACRO Biosystem, Beijing, China), mouse SIRPα protein (SIA-M5258, ACRO Biosystem, Beijing, China), human PVR protein (CD5-H82F6, ACRO Biosystem, Beijing, China), and mouse PVR protein (50259-M03H, Sino Biological, Beijing, China) were used. PE-conjugated anti-human IgG antibody was used to detect the Fc protein bind to cells. Cells incubated with the Fc proteins and anti-human IgG antibody without the SMIs serve as the positive control. The mean fluorescent intensity (MFI) of each sample was detected and recorded by a flow cytometry. The blocking efficacy of the SMIs was calculated as the equation: (MFI of the positive control-MFI of the SMI)/MFI of the positive control × 100%.
(§2) The small molecule inhibitor could not only bind to the target; most importantly, it should interfere with the receptor–ligand interactions. Subsequently, the candidate inhibitors were screened by the blocking assays with the established CD47 and TIGIT over-expressing cell lines. The test was initialed with a preliminary screening of the candidates with a single concentration (Figure 2D). Generally, the SMI blocking efficacy to the CD47/SIRPα interaction was much higher than that of the TIGIT/PVR. […] Therefore, the SMI-F11 and SMI-F17 may exert dual blocking effects in the CD47/SIRPα and TIGIT/PVR pathways. Blocking assays with a concentration gradient of the SMI were further performed to validate the preliminary screening. […] The similar blocking assays with the mouse CD47 and TIGIT over-expressing cells were also performed. […] Considering that most pairs of the immune checkpoints interact with the corresponding ligand in parallel forms, the blocking assays with the PD-1/PD-L1 interaction system was also conducted to test the specificity.

TIGIT/PVR interaction = molecular target: T2, TIGIT/PVR interaction (Homo sapiens, UniProt P15151); assay: Blocking assay by flow cytometry, preliminary screening at a single concentration, TIGIT/PVR; assay type: binding; settings: preliminary test, single concentration of 100 μM
T2 construct: purchased ACRO Biosystem CD5-H82F6; host or cells: CHOK1-TIGIT cells (lenti-viral transfection)
T2 sequence (P15151 21-343 limits assumed): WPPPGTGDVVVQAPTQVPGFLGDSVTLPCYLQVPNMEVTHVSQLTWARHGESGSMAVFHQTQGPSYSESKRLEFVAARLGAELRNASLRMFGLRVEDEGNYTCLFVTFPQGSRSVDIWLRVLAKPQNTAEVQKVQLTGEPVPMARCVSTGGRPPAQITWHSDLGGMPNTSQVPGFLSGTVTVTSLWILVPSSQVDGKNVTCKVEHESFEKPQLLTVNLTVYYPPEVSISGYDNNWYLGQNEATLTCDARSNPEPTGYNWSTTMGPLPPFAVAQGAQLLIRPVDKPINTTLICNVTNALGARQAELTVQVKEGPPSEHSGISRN
Method: as §1, §2

[1] = test system: peripheral blood mononuclear cells; set-up: method as in PMID 29398679, PMID 20606305; settings: cited from earlier work

T1 sequence (P78324 31-370 limits assumed): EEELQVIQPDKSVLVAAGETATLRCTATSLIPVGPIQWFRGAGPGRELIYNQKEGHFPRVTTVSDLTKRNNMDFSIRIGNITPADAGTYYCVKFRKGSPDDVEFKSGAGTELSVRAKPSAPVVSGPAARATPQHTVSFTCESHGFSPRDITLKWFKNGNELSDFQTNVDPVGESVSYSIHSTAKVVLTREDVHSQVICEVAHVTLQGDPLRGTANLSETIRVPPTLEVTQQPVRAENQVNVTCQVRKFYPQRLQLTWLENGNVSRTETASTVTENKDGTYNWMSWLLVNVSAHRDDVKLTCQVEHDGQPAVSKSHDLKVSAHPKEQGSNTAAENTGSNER

- blocking efficacy, CD47/SIRPα interaction (CD47/SIRPα interaction): more than 50%
- activity in interfering with the TIGIT/PVR interaction (TIGIT/PVR interaction): better activities
Structure (SMILES): CC1=C(C(=O)OC(C)C)C(c2cccc([N+](=O)[O-])c2)C(C(=O)OC2CN(C(c3ccccc3)c3ccccc3)C2)=C(N)N1 (stereo not shown) [Azelnidipine]
- phagocytosis of MC38 cells by BMDM cells (MC38 cells): significantly enhance
- cytokine secretion of peripheral blood mononuclear cells [1]: inhibit
